Results as given in patent US5506239A, “Carbostyril derivative and platelets aggregation inhibitory agent” (Otsuka Pharmaceutical Co., Ltd., priority 1991, dated 1996).
One block for each compound: values may come before it.

Tests used:
[1] = target: T1, cyclic AMP phosphodiesterase (Homo sapiens, UniProt Q14432); experiment: Cyclic AMP phosphodiesterase inhibitory activity, enzyme from human platelets (Pharmacological Test IV); format: biochemical, man; conditions: 0.4 μM cyclic AMP substrate, 30° C., 20 minutes, human platelet enzyme; read-out: IC50 (50% phosphodiesterase inhibition concentration)
T1 construct: the resulting supernatant liquid was used as a crude enzyme solution; from tissue; host or cells: human platelets (from platelet-rich plasma)
T1 sequence (Q14432 whole entry): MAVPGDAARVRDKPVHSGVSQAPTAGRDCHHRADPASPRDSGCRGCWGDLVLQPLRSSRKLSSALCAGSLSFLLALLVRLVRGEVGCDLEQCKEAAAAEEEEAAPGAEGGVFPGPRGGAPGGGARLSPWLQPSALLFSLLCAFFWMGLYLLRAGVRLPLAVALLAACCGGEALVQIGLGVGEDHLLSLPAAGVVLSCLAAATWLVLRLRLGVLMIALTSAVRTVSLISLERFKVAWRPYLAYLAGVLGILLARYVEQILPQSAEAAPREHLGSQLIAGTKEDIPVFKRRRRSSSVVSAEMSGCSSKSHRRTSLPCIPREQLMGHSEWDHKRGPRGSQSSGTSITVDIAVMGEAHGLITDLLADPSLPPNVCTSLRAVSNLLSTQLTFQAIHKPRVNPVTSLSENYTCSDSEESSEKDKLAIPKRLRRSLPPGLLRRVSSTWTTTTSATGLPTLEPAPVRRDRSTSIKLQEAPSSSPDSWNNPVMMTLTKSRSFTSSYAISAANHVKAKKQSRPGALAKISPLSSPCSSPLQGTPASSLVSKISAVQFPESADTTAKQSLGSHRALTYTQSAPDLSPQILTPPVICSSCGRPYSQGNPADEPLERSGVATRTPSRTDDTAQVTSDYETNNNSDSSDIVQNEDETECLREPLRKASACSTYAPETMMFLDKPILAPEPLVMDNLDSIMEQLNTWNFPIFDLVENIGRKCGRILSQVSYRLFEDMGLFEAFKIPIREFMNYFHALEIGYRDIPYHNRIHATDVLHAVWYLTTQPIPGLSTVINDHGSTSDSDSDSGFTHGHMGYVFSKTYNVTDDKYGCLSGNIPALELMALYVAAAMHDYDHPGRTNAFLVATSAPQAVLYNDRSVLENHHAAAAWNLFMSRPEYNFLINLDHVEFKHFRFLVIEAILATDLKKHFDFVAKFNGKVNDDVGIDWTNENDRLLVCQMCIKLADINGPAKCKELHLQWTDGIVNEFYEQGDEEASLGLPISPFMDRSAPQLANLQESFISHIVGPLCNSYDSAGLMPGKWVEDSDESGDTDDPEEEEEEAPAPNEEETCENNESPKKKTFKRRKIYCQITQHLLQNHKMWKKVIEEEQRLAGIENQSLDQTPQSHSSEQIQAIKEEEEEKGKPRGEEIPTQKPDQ

platelets [2] = experiment: Platelets aggregation inhibitory activity (method of Born et al.), ADP-induced, human PRP (Pharmacological Test I); format: cell-based, man; conditions: 7.5 μM ADP, 37° C., read-out: IC50 ADP (50% platelets aggregation inhibition)
Description: (§1) The platelets aggregation inhibitory activity of each test compound was measured by the method of Born et al. [J. Physiol., London, 162, 67 (1962)], using Platelets Aggregation Tracer manufactured by Nikoh Bioscience Co., Ltd.
(§2) 9 volumes of a blood collected from person was mixed with 1 volume of a 3.8% aqueous sodium citrate solution. Part of the mixture was subjected to centrifugation at 1,100 rpm for 10 minutes to obtain a platelet rich plasma (PRP). The remainder of the mixture was also subjected to centrifugation at 3,000 rpm for 10 minutes to obtain a platelet poor plasma (PPP).
(§3) The number of platelets in the PRP was measured using Coulter Counter manufactured by Coulter Electronics Inc. Then, the PRP was diluted with the PPP so that the number of platelets in the dilution became 300,000, whereby a PRP solution was prepared.
(§4) 200 μl of this PRP solution and 2 ml of a solution containing a test compound at a given concentration were placed in an aggregation measurement cell and heated at 37° C. for 1 minute. Thereto was added 20 μl of adenosine diphosphate (ADP manufactured by Sigma Co.) or a collagen suspension (Collagen Reagent manufactured by Horm, Hormon-Chemie, Gmbh) to induce aggregation of platelets. The resulting mixture in the cell was measured for change of transmittance, after which a platelets aggregation curve was prepared. Incidentaly, the concentration of ADP or collagen was selected so that the final Concentration became 7.5 μM or 20 μg/ml.
(§5) Using the platelets aggregation curve, there was calculated a maximum aggregation rate (MAR) of platelets using the followoing formula: […]
(§6) wherein a represents a transmittance of the PRP obtained in the same manner; c represents a transmittance of the PPP obtained in the same manner; and b represents a transmittance at the maximum change, of the PRP solution containng the test compound and the aggregation inducer.
(§7) A MAR was also calculated as above, for the control containing no test compound.
(§8) Using the above two MARs, there were calculated platelets aggregation inhibitions (%) of each test compound at various concentrations using the following formula.
(§9) Inhibition=[1-(MAR of PRP solution containing test compound)/(MAR of PRP
(§10) solution containing no test compound)]×100
(§11) Using the above obtained platelets aggregation inhibitions (%) of each test compound at various concentrations, there was calculated a concentration (IC50) of each test compound for 50% platelets aggregation inhibition.

platelets [3] = experiment: Platelets aggregation inhibitory activity (method of Born et al.), collagen-induced, human PRP (Pharmacological Test I); format: cell-based, man; conditions: Homo sapiens, Platelet, 20 μg/ml collagen, 37° C., read-out: IC50 Collagen (50% platelets aggregation inhibition)
Description: as §1, §2, §3, §4, §5, §6, §7, §8, §9, §10, §11

platelets [4] = experiment: Inhibition of collagen-induced platelets adhesion, washed platelets (Pharmacological Test III); format: cell-based, man; conditions: Platelet, 50 μg/ml collagen, human washed platelets, read-out: Inhibition (%) of collagen-induced platelets adherence
Description: A blood was collected from a healthy person with normal platelets function by addition of 0.1% disodium ethylenediaminetetraacetate (EDTA.4Na) and immediately subjected to separation of a platelet rich plasma (PRP). The PRP was washed twice with a Tyrode's buffer solution (50mM TRIS, 0.1% EDTA, Ca (-), Mg (-), 0.14% BSA added, pH=7.4), and suspended in the buffer solution so that the number of platelets in the resulting suspension became 300, 000/ml, to obtain a platelets suspension (EDTA-WP). 4 mg of Type I manufactured by Sigma Co., derived from a bovine skin was dissolved in 0.25 ml of acetic acid (83.5 mM); 8 ml of distilled water was added thereto; an ultrasonic wave was applied to the mixture at 4° C. for 2 minutes; 5 ml of the supernatant liquid was separated as a collagen solution. Each test compound was dissolved in dimethylformamide (DMF) so as to give a concentration of at least […] when possible, to prepare a test compound solution. The change in turbidity of platelets suspension was recorded as a change in transmitted light emitted from a glass cell containing the suspension, using a platelets aggregation tracer manufactured by Nikoh Bioscience K.K., generally used in the test of platelets aggregation function, whereby the adherence of platelets was measured. Incidentally, in recoridng the change in transmitted light, the sensitivity of the recorder was 5 times as high as that used generally. 200 μl of the EDTA-WP was placed in a glass cell exclusively used for the above platelets aggregation tester. Further, 1 μl of the test compound solution was added. The mixture was incubated at room temperature for 5 minutes. Then, the cell was set in the platelets aggregation tracer and was allowed to stand for 1 minute until the temperature became 37° C. Thereafter, about 20 μl (50 μg/ml) of the collagen solution was added, and the adherence of platelets were measured.
The inhibitions (%) of collagen-induced platelets adhesion by each test compound at various concentrations were calculated using the following formula.
Inhibition (%)=[1-(platelets adherence when test compound added)/
(platelets adherence when no test compound added)]×100

mongrel dogs = conditions: dog, in vivo, 300 mg/kg
Description: The heart rate-increasing activity and blood pressure hypotensive activity of each test compound were measured by the following method, using mongrel dogs each weighing 10-20 kg. That is, said dogs were anesthesized by intravenous injection of pentobarbital sodium, then fixed at the back, and tested under artificial respiration. The blood pressures of the dogs were measured by a blood pressure measuring transducer (P23×L manufactured by Gould Statham Instruments, Inc.) via cannula inserted into the femoral artery. The heart rates of the dogs were measured using the pulse wave of the blood pressure of each dog, via a tachometer. The signals of these testng apparatuses were recorded on a thermal pen-type recorder (Recti-Horize 8K manufactured by Nippon Denki-San-ei Sha).
Some of the compounds obtained in the above Examples were used as test compounds. […] Then, the heart rate of each dog was measured according to the above method and a maximum change in heart rate was calculated.

Structure (SMILES): O=c1ccc2cc(OCCCCCN(Cc3ccccc3)Cc3ccccn3)ccc2[nH]1 [Example 70]
- IC50 [1]: < 100 nM
- IC50 (platelets [2]; Homo sapiens, Platelet): 40000 nM
- IC50 (platelets [3]): 22000 nM

Structure (SMILES): CN(C(=S)CCCOc1ccc2[nH]c(=O)ccc2c1)C1CCCCC1 [Example 143]
- IC50 [1]: 1440 nM
- IC50 (platelets [2]): 3800 nM
- IC50 (platelets [3]): 2300 nM

Structure (SMILES): O=c1ccc2cc(OCCCCS(=O)(=O)N(CCN3CCC(O)CC3)Cc3ccccc3Cl)ccc2[nH]1 [Example 93]
- IC50 [1]: < 100 nM
- IC50 (platelets [2]; Homo sapiens, Platelet): 1200 nM
- IC50 (platelets [3]): 2600 nM

- IC50 [1]: 490 nM
Structure (SMILES): O=c1ccc2ccc(OCCCCN(CCN3CCC(O)CC3)CC3CCCCCCC3)cc2[nH]1 [Example 134]
- inhibition at 10 µM (platelets [4]): 45%

Structure (SMILES): O=c1ccc2cc(OCCCS(=O)(=O)N(CCN3CCC(O)CC3)C3CCCCCCC3)ccc2[nH]1 [Example 85]
- inhibition at 3 µM (platelets [4]; dose 3 μM): 50%
- IC50 [1]: < 100 nM
- Maximum change in heart rate (mongrel dogs): 13 beats/minute
- IC50 (platelets [2]; Homo sapiens, Platelet): 2100 nM
- IC50 (platelets [3]): 570 nM

Structure (SMILES): O=c1ccc2cc(OCCCCS(=O)(=O)N(CCN3CCC(O)CC3)CC3CCCCCCC3)ccc2[nH]1 [Example 79]
- IC50 [1]: < 100 nM
- IC50 (platelets [2]; Homo sapiens, Platelet): 1300 nM
- IC50 (platelets [3]): 2500 nM

- IC50 [1]: 480 nM
Structure (SMILES): O=c1ccc2cc(OCCCCN(CCN3CCC(O)CC3)Cc3ccccc3)ccc2[nH]1 [Example 28]
- inhibition at 10 µM (platelets [4]): 48%
- Maximum change in heart rate (mongrel dogs): 0 beats/minute

Structure (SMILES): O=c1ccc2cc(OCCCCS(=O)(=O)N(CCN3CCC(O)CC3)Cc3ccccc3)ccc2[nH]1 [Example 89]
- IC50 [1]: < 100 nM
- IC50 (platelets [2]; Homo sapiens, Platelet): 7700 nM
- IC50 (platelets [3]): 3800 nM
